Experimental data: patent US20100286145A1, “ISOPHTHALAMIDE DERIVATIVES INHIBITING BETA-SECRETASE ACTIVITY” (CoMentis, Inc., priority 2007, published 2010)
Read-outs that look alike come from different tables or passages of the source.

What was measured:
memapsin 1 = target: T1, memapsin 1 (Homo sapiens, UniProt Q9Y5Z0); assay: Inhibition of memapsin 1 beta-secretase activity (substrate peptide ELDLAVEFWHDR, MALDI-TOF); type: biochemical; conditions: read-out: M1Ki
T1 sequence (Q9Y5Z0 63-518): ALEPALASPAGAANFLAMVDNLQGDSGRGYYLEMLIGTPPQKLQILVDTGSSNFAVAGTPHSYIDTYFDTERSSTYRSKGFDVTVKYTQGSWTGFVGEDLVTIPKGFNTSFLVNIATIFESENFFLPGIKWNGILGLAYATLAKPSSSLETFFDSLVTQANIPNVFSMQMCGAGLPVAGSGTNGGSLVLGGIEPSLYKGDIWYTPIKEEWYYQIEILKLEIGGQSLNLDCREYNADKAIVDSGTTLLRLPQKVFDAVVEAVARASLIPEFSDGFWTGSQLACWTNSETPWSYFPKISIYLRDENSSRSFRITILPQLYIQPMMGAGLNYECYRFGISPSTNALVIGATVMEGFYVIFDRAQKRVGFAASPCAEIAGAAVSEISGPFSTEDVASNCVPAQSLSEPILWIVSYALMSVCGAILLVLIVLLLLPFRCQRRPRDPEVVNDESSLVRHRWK

memapsin 2 = memapsin 2 (Homo sapiens, UniProt P56817); assay: Inhibition of memapsin 2 beta-secretase activity (fluorogenic substrate FS-2); type: biochemical; conditions: memapsin 2, pH 4, 37° C., read-out: M2Ki
Method in brief: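 Memapsin 2 pre-incubated 20 min with compound at pH 4, 37° C, then FS-2 substrate (MCA-SEVNLDAEFK-DNP, APP Swedish cleavage site) added. Rate of fluorescence increase compared with uninhibited controls, fitted to a tight-binding inhibition model.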

[1] = system: Aβ production in Chinese hamster ovary cells that over-express human APP695 with the London and Swedish mutations; assay: Cellular Aβ IC50 determination (Aβ40 sandwich ELISA); type: cell-based; conditions: Cricetulus griseus; cellular Aβ production; read-out: IC50
Method in brief: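 CHO cells overexpressing human APP695 with London and Swedish mutations, seeded at 10% confluency, treated with compounds up to about 4 μM final (0.4% DMSO). Secreted Aβ40 measured by sandwich ELISA relative to control and fitted to a 4-parameter IC50 model.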

cathepsin D = cathepsin D (Homo sapiens, UniProt P07339); assay: Inhibition of cathepsin D activity (substrate peptide ELDLAVEFWHDR, MALDI-TOF); type: biochemical; conditions: read-out: CDKi
cathepsin D, sequence (P07339 65-412, species assumed): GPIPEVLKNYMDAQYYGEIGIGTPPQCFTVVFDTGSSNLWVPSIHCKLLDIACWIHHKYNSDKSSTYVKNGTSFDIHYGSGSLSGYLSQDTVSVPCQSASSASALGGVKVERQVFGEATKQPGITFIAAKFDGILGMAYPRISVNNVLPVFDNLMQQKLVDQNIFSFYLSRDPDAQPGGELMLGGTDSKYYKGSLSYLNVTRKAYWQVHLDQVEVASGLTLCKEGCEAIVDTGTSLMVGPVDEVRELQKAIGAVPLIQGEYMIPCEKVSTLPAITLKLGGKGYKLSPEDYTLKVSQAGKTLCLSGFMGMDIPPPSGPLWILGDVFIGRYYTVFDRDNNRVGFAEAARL

memapsin 2, sequence (P56817 46-501): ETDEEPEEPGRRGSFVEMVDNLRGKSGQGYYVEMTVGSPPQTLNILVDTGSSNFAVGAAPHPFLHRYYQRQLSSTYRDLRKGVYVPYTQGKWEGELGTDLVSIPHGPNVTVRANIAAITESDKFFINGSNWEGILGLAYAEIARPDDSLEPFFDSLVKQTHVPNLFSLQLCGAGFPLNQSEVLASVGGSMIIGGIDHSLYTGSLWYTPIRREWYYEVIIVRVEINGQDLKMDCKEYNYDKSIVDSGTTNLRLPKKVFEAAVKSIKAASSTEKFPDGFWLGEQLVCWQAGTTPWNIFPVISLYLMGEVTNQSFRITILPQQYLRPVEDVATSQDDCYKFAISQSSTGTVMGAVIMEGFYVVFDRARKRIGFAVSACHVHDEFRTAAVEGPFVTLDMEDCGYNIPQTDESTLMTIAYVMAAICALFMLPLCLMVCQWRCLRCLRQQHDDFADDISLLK

Ki (memapsin 1) [µM] | Ki (memapsin 2; 20 minutes pre-incubation) [µM] | IC50 [1] [µM] | Ki (cathepsin D) [µM] | Ki (memapsin 2; fluorogenic substrate FS-2) [µM] | Structure (SMILES)
< 0.3 | < 0.3 | < 1 | < 0.3 | – | C[C@@H](NC(=O)c1cc(C(=O)N[C@@H](Cc2ccccc2)[C@H](O)CNCc2cccc(I)c2)cc(N(C)S(C)(=O)=O)c1)c1ccccc1 [Compound 88, N1-((2S,3R)-3-hydroxy-4-(3-iodobenzylamino)-1-phenylbutan-2-yl)-5-(N-methylmethylsulfonamido)-N3-((R)-1-phenylethyl)isophthalamide]
< 0.3 | < 0.3 | < 1 | – | – | Cc1csc(CN(C)C(=O)c2cc(C(=O)N[C@@H](Cc3ccccc3)[C@H](O)CNCc3cncc(C(C)C)c3)cc(-c3ncco3)c2)n1 [Compound 170, N1-((2S,3R)-3-hydroxy-4-((5-isopropylpyridin-3-yl)methylamino)-1-phenylbutan-2-yl)-N3-methyl-N3-((4-methylthiazol-2-yl)methyl)-5-(oxazol-2-yl)isophthalamide]
0.301 to 0.5 | – | < 1 | – | < 0.3 | Cc1csc(CN(C)C(=O)c2cccc(C(=O)N[C@@H](Cc3ccccc3)[C@H](O)CNCc3cc(CS(C)(=O)=O)cc(C(C)C)c3)c2)n1 [Compound 228, N1-((2S,3R)-3-hydroxy-4-(3-isopropyl-5-(methylsulfonylmethyl)benzylamino)-1-phenylbutan-2-yl)-N3-methyl-N3-((4-methylthiazol-2-yl)methyl)isophthalamide]
< 0.3 | – | < 1 | – | < 0.3 | Cc1csc(CN(C)C(=O)c2cc(C(=O)N[C@@H](Cc3ccccc3)[C@H](O)CNCc3cncc(C(C)C)c3)cc(-c3cnco3)c2)n1 [Compound 218, N1-((2S,3R)-3-hydroxy-4-((5-isopropylpyridin-3-yl)methylamino)-1-phenylbutan-2-yl)-N3-methyl-N3-((4-methylthiazol-2-yl)methyl)-5-(oxazol-5-yl)isophthalamide]
< 0.3 | < 0.3 | < 1 | – | – | Cc1csc(CN(C)C(=O)c2cccc(C(=O)N[C@@H](Cc3cc(F)cc(F)c3)[C@H](O)CNCc3cncc(C(C)C)c3)c2)n1 [Compound 208, N1-((2S,3R)-1-(3,5-difluorophenyl)-3-hydroxy-4-((5-isopropylpyridin-3-yl)methylamino)butan-2-yl)-N3-methyl-N3-((4-methylthiazol-2-yl)methyl)isophthalamide]
< 0.3 | > 0.501 | – | > 0.501 | – | COc1cccc(CNC[C@@H](O)[C@H](Cc2ccccc2)NC(=O)c2cc(C(N)=O)cc(C(=O)N[C@H](C)c3ccccc3)c2)c1 [Compound 91, N1-((2S,3R)-3-hydroxy-4-(3-methoxybenzylamino)-1-phenylbutan-2-yl)-N3-((R)-1-phenylethyl)benzene-1,3,5-tricarboxamide]
< 0.3 | – | < 1 | – | < 0.3 | Cc1csc(CN(C)C(=O)c2cc(C(=O)N[C@@H](Cc3ccccc3)[C@H](O)CNCc3cncc(C(C)(C)F)c3)cc(N(C)C)c2)n1 [Compound 220, 5-(dimethylamino)-N1-((2S,3R)-4-((5-(2-fluoropropan-2-yl)pyridin-3-yl)methylamino)-3-hydroxy-1-phenylbutan-2-yl)-N3-methyl-N3-((4-methylthiazol-2-yl)methyl)isophthalamide]
– | – | < 1 | – | < 0.3 | CC(C)c1cncc(CNC[C@@H](O)[C@H](Cc2ccccc2)NC(=O)c2cccc(C(=O)N(C)Cc3nc(CF)cs3)c2)c1 [Compound 278, N1-((4-(fluoromethyl)thiazol-2-yl)methyl)-N3-((2S,3R)-3-hydroxy-4-((5-isopropylpyridin-3-yl)methylamino)-1-phenylbutan-2-yl)-N1-methylisophthalamide]
– | < 0.3 | < 1 | – | – | CNC(=O)c1cc(CNC[C@@H](O)[C@H](Cc2ccccc2)NC(=O)c2cccc(C(=O)N(C)Cc3nc(C)cs3)c2)cc(OC)c1 [Compound 112, N1-((2S,3R)-3-hydroxy-4-(3-methoxy-5-(methylcarbamoyl)benzylamino)-1-phenylbutan-2-yl)-N3-methyl-N3-((4-methylthiazol-2-yl)methyl)isophthalamide]
– | < 0.3 | < 1 | – | – | Cc1csc(CN(C)C(=O)c2cccc(C(=O)N[C@@H](Cc3ccccc3)[C@H](O)CNCc3cc(NS(C)(=O)=O)cc(C(C)C)c3)c2)n1 [Compound 119, N1-((2S,3R)-3-hydroxy-4-(3-isopropyl-5-(methylsulfonamido)benzylamino)-1-phenylbutan-2-yl)-N3-methyl-N3-((4-methylthiazol-2-yl)methyl)isophthalamide]
– | < 0.3 | < 1 | – | – | CCN(CC)c1cc(C(=O)N[C@@H](Cc2ccccc2)[C@H](O)CNCc2cncc(C(C)C)c2)cc(C(=O)N(C)Cc2nc(C)cs2)c1 [Compound 172, 5-(diethylamino)-N1-((2S,3R)-3-hydroxy-4-((5-isopropylpyridin-3-yl)methylamino)-1-phenylbutan-2-yl)-N3-methyl-N3-((4-methylthiazol-2-yl)methyl)isophthalamide]
– | < 0.3 | < 1 | – | – | COC(=O)c1cc(CNC[C@@H](O)[C@H](Cc2ccccc2)NC(=O)c2cc(C(=O)N[C@H](C)c3ccccc3)cc(N(C)S(C)(=O)=O)c2)cc(OC)c1 [Compound 114, methyl 3-(((2R,3S)-2-hydroxy-3-(3-(N-methylmethylsulfonamido)-5-((R)-1-phenylethylcarbamoyl)benzamido)-4-phenylbutylamino)methyl)-5-methoxybenzoate]
– | < 0.3 | < 1 | – | – | COc1cccc([C@@H](C)NC[C@@H](O)[C@H](Cc2ccccc2)NC(=O)c2cc(C(=O)N[C@H](C)c3ccccc3)cc(N(C)S(C)(=O)=O)c2)c1 [Compound 201, N1-((2S,3R)-3-hydroxy-4-((R)-1-(3-methoxyphenyl)ethylamino)-1-phenylbutan-2-yl)-5-(N-methylmethylsulfonamido)-N3-((R)-1-phenylethyl)isophthalamide]
– | < 0.3 | < 1 | – | – | Cc1csc(CN(C)C(=O)c2cccc(C(=O)N[C@@H](Cc3ccccc3)[C@H](O)CNCc3cccc(C4CC4)c3)c2)n1 [Compound 12, N1-((2S,3R)-4-(3-cyclopropylbenzylamino)-3-hydroxy-1-phenylbutan-2-yl)-N3-methyl-N3-((4-methylthiazol-2-yl)methyl)isophthalamide]
– | > 0.501 | > 5 | – | – | Cc1csc(CN(C)C(=O)c2cccc(C(=O)N[C@@H](Cc3ccccc3)[C@H](O)CNCc3ccncc3)c2)n1 [Compound 26, N1-((2S,3R)-3-hydroxy-1-phenyl-4-(pyridin-4-ylmethylamino)butan-2-yl)-N3-methyl-N3-((4-methylthiazol-2-yl)methyl)isophthalamide]
– | – | < 1 | – | < 0.3 | COc1cccc(CNC[C@@H](O)[C@H](Cc2ccccc2)NC(=O)c2cc(C(=O)N(C)Cc3nc(C)cs3)cc(N3CCCCC3)c2)c1 [Compound 230, N1-((2S,3R)-3-hydroxy-4-(3-methoxybenzylamino)-1-phenylbutan-2-yl)-N3-methyl-N3-((4-methylthiazol-2-yl)methyl)-5-(piperidin-1-yl)isophthalamide]
